Source: publication PMC5218480 (PLoS ONE, 2017)

Tested on: MV-4-11 cells
Assay: Gene expression microarray analysis (Affymetrix PrimeView) and GSEA
Assay type: cell-based, human
Set-up: RFU PODN (11730768_x_at) / Fold change /veh PODN (11730768_x_at) / RFU LINC00158 (11744669_a_at) / Fold change /veh LINC00158 (11744669_a_at) / RFU DUSP10 (11751237_a_at) / Fold change /veh DUSP10 (11751237_a_at) / RFU ID3 (11757404_x_at) / Fold change /veh ID3 (11757404_x_at) / RFU PLEKHG5 (11737974_s_at) / Fold change /veh PLEKHG5 (11737974_s_at) / RFU LRRC4B (11730491_at) / Fold change /veh LRRC4B (11730491_at) / RFU GIMAP4 (11747438_a_at) / Fold change /veh GIMAP4 (11747438_a_at) / RFU KRT8 (11758183_x_at) / Fold change /veh KRT8 (11758183_x_at) / RFU CNN1 (11734310_a_at) / Fold change /veh CNN1 (11734310_a_at) / RFU VPS37D (11726825_at) / Fold change /veh VPS37D (11726825_at) / RFU C10orf10 (11716522_x_at) / Fold change /veh C10orf10 (11716522_x_at) / RFU KIR2DL2 /// KIR2DL4 /// KIR2DL5A /// KIR2DL5B /// KIR2DS1 /// KIR2DS2 /// KIR2DS3 /// KIR2DS4 /// KIR3DL3 /// KIR3DL3 /// KIR3DS1 (11738374_at) / Fold change /veh KIR2DL2 /// KIR2DL4 /// KIR2DL5A /// KIR2DL5B /// KIR2DS1 /// KIR2DS2 /// KIR2DS3 /// KIR2DS4 /// KIR3DL3 /// KIR3DL3 /// KIR3DS1 (11738374_at) / RFU C1QL1 (11718748_at) / Fold change /veh C1QL1 (11718748_at) / RFU TMPRSS4 (11747572_a_at) / Fold change /veh TMPRSS4 (11747572_a_at) / RFU HAMP (11756126_x_at) / Fold change /veh HAMP (11756126_x_at) / RFU RNFT2 (11725882_a_at) / Fold change /veh RNFT2 (11725882_a_at) / RFU NR4A2 (11747474_a_at) / Fold change /veh NR4A2 (11747474_a_at) / RFU ABCC12 (11746883_a_at) / Fold change /veh ABCC12 (11746883_a_at) / RFU TMEM136 (11760407_x_at) / Fold change /veh TMEM136 (11760407_x_at) / RFU CLDN22 /// WWC2 (11732394_at) / Fold change /veh CLDN22 /// WWC2 (11732394_at) / RFU HLA-DPB1 (11760878_x_at) / Fold change /veh HLA-DPB1 (11760878_x_at) / RFU SPINT1 (11716480_a_at) / Fold change /veh SPINT1 (11716480_a_at) / RFU GAP43 (11754022_s_at) / Fold change /veh GAP43 (11754022_s_at) / RFU A4GNT (11735810_at) / Fold change /veh A4GNT (11735810_at) / RFU PRB3 (11715151_x_at) / Fold change /veh PRB3 (11715151_x_at) / RFU TUBB4B (11761932_at) / Fold change /veh TUBB4B (11761932_at) / RFU CAPN14 (11732068_a_at) / Fold change /veh CAPN14 (11732068_a_at) / RFU TMCC2 (11721928_a_at) / Fold change /veh TMCC2 (11721928_a_at) / RFU IRGQ (11745062_a_at) / Fold change /veh IRGQ (11745062_a_at) / RFU FAM174B (11720279_a_at) / Fold change /veh FAM174B (11720279_a_at) / RFU TMPRSS4 (11748680_a_at) / Fold change /veh TMPRSS4 (11748680_a_at) / RFU FAM212B (11763350_a_at) / Fold change /veh FAM212B (11763350_a_at) / RFU PLEKHG5 (11743358_a_at) / Fold change /veh PLEKHG5 (11743358_a_at) / RFU ZSCAN30 (11745921_a_at) / Fold change /veh ZSCAN30 (11745921_a_at) / RFU CMKLR1 (11741424_a_at) / Fold change /veh CMKLR1 (11741424_a_at) / RFU LOC101060620 /// MAPK8IP1 (11723275_at) / Fold change /veh LOC101060620 /// MAPK8IP1 (11723275_at) / RFU SPTSSB (11747773_x_at) / Fold change /veh SPTSSB (11747773_x_at) / RFU PRSS12 (11739890_at) / Fold change /veh PRSS12 (11739890_at) / RFU BIN1 (11741810_x_at) / Fold change /veh BIN1 (11741810_x_at) / RFU WNT11 (11732464_a_at) / Fold change /veh WNT11 (11732464_a_at) / RFU C10orf10 (11716521_a_at) / Fold change /veh C10orf10 (11716521_a_at) / RFU C5orf56 (11738089_at) / Fold change /veh C5orf56 (11738089_at) / RFU CYB561 (11721691_x_at) / Fold change /veh CYB561 (11721691_x_at) / RFU ANKRD19P (11752326_a_at) / Fold change /veh ANKRD19P (11752326_a_at) / RFU OR2T12 /// OR2T33 /// OR2T8 (11738714_s_at) / Fold change /veh OR2T12 /// OR2T33 /// OR2T8 (11738714_s_at) / RFU VCAN (11748164_a_at) / Fold change /veh VCAN (11748164_a_at) / RFU JSRP1 (11732532_at) / Fold change /veh JSRP1 (11732532_at) / RFU KRTAP10-11 (11738290_x_at) / Fold change /veh KRTAP10-11 (11738290_x_at) / RFU MYO3A (11730013_a_at) / Fold change /veh MYO3A (11730013_a_at) / RFU EBF3 (11725865_a_at) / Fold change /veh EBF3 (11725865_a_at) / RFU CAMK2N1 (11719241_x_at) / Fold change /veh CAMK2N1 (11719241_x_at) / RFU C5orf56 (11738088_a_at) / Fold change /veh C5orf56 (11738088_a_at) / RFU OLFML3 (11715873_a_at) / Fold change /veh OLFML3 (11715873_a_at) / RFU LOC100653217 /// NTM (11731650_a_at) / Fold change /veh LOC100653217 /// NTM (11731650_a_at) / RFU MAPK11 (11762145_a_at) / Fold change /veh MAPK11 (11762145_a_at) / RFU FIZ1 (11724087_x_at) / Fold change /veh FIZ1 (11724087_x_at) / RFU OASL (11726364_x_at) / Fold change /veh OASL (11726364_x_at) / RFU SOX15 (11748057_x_at) / Fold change /veh SOX15 (11748057_x_at) / RFU CD79A (11719716_a_at) / Fold change /veh CD79A (11719716_a_at) / RFU HIST1H1D (11736915_at) / Fold change /veh HIST1H1D (11736915_at) / RFU CASKIN2 (11723855_a_at) / Fold change /veh CASKIN2 (11723855_a_at) / RFU LOC730098 (11760151_x_at) / Fold change /veh LOC730098 (11760151_x_at) / RFU OR4N2 (11742367_at) / Fold change /veh OR4N2 (11742367_at) / RFU PRRT2 (11749266_a_at) / Fold change /veh PRRT2 (11749266_a_at) / RFU SNX32 (11753110_a_at) / Fold change /veh SNX32 (11753110_a_at) / RFU CDHR5 (11726645_a_at) / Fold change /veh CDHR5 (11726645_a_at) / RFU RCAN1 (11760418_a_at) / Fold change /veh RCAN1 (11760418_a_at) / RFU FAM167A (11723789_a_at) / Fold change /veh FAM167A (11723789_a_at) / RFU FAM26E (11764081_at) / Fold change /veh FAM26E (11764081_at) / RFU ISYNA1 (11749810_s_at) / Fold change /veh ISYNA1 (11749810_s_at) / RFU ACY1 (11761880_at) / Fold change /veh ACY1 (11761880_at) / RFU 11764098_at / Fold change /veh 11764098_at / RFU SAMD14 (11745864_x_at) / Fold change /veh SAMD14 (11745864_x_at) / RFU NPB (11741838_a_at) / Fold change /veh NPB (11741838_a_at) / RFU TMPRSS6 (11731388_a_at) / Fold change /veh TMPRSS6 (11731388_a_at) / RFU KRTAP10-2 (11738614_at) / Fold change /veh KRTAP10-2 (11738614_at) / RFU ARHGAP8 /// PRR5-ARHGAP8 (11727945_x_at) / Fold change /veh ARHGAP8 /// PRR5-ARHGAP8 (11727945_x_at) / RFU KRTAP5-7 /// NADSYN1 (11734609_at) / Fold change /veh KRTAP5-7 /// NADSYN1 (11734609_at) / RFU RASL12 (11751679_a_at) / Fold change /veh RASL12 (11751679_a_at) / RFU CDKN2B (11736163_a_at) / Fold change /veh CDKN2B (11736163_a_at) / RFU PRF1 (11729649_at) / Fold change /veh PRF1 (11729649_at) / RFU, ZNF638 /// ZNF638-IT1 / Fold change vs veh, ZNF638 /// ZNF638-IT1 / RFU, PANK3 / Fold change vs veh, PANK3 / RFU, SH3YL1 / Fold change vs veh, SH3YL1 / RFU, ZEB2 / Fold change vs veh, ZEB2 / RFU, NRIP1 / Fold change vs veh, NRIP1 / RFU, PTTG1IP / Fold change vs veh, PTTG1IP / RFU, CAPN2 / Fold change vs veh, CAPN2 / RFU, MED14 / Fold change vs veh, MED14 / RFU, SNORA58 / Fold change vs veh, SNORA58 / RFU, C1orf63 / Fold change vs veh, C1orf63 / RFU, LRRFIP1 / Fold change vs veh, LRRFIP1 / RFU, NDUFAF7 / Fold change vs veh, NDUFAF7 / RFU, SLC12A2 / Fold change vs veh, SLC12A2 / RFU, IBTK / Fold change vs veh, IBTK / RFU, ESF1 / Fold change vs veh, ESF1 / Fold change vs veh, TMEM50B / RFU, TAOK1 / Fold change vs veh, TAOK1 / RFU, ACBD3 / Fold change vs veh, ACBD3 / RFU, TMA16 / Fold change vs veh, TMA16 / RFU, RWDD3 / Fold change vs veh, RWDD3 / RFU, BCAT1 / Fold change vs veh, BCAT1 / RFU, EDEM3 / Fold change vs veh, EDEM3 / RFU, TMEM33 / Fold change vs veh, TMEM33 / RFU, WDR75 / Fold change vs veh, WDR75 / RFU, AHCTF1 / Fold change vs veh, AHCTF1 / RFU, TFRC / Fold change vs veh, TFRC / RFU, ZDHHC17 / Fold change vs veh, ZDHHC17 / RFU, NOM1 / Fold change vs veh, NOM1 / RFU, ARL8B / Fold change vs veh, ARL8B / RFU, ZBTB11 / Fold change vs veh, ZBTB11 / RFU, TAMM41 / Fold change vs veh, TAMM41 / RFU, KIAA1704 /// LOC100996395 / Fold change vs veh, KIAA1704 /// LOC100996395 / RFU, ING1 / Fold change vs veh, ING1 / RFU, TRMT61B / Fold change vs veh, TRMT61B / RFU, FUBP3 / Fold change vs veh, FUBP3 / RFU, TP53 / Fold change vs veh, TP53 / RFU, TNKS2 / Fold change vs veh, TNKS2 / RFU, ZFP14 / Fold change vs veh, ZFP14 / RFU, ACTR2 / Fold change vs veh, ACTR2 / RFU, PPP3R1 / Fold change vs veh, PPP3R1 / RFU, PIK3R1 / Fold change vs veh, PIK3R1 / RFU, HNRNPA1 / Fold change vs veh, HNRNPA1 / RFU, RNF170 / Fold change vs veh, RNF170 / RFU, ZNF28 / Fold change vs veh, ZNF28 / RFU, RNGTT / Fold change vs veh, RNGTT / RFU, OGT / Fold change vs veh, OGT / RFU, BRD1 / Fold change vs veh, BRD1 / RFU, MARS / Fold change vs veh, MARS / RFU, ZNF655 / Fold change vs veh, ZNF655 / RFU, FAHD1 / Fold change vs veh, FAHD1 / RFU, BDP1 / Fold change vs veh, BDP1 / RFU, LRRCC1 / Fold change vs veh, LRRCC1 / RFU, ARID1A / Fold change vs veh, ARID1A / RFU, ZNF146 / Fold change vs veh, ZNF146 / RFU, ZNF330 / Fold change vs veh, ZNF330 / RFU, GPN3 / Fold change vs veh, GPN3 / RFU, C9orf123 / Fold change vs veh, C9orf123 / RFU, N4BP2L2 / Fold change vs veh, N4BP2L2 / RFU, ARFIP1 / Fold change vs veh, ARFIP1 / RFU, FAM179B / Fold change vs veh, FAM179B / RFU, BCL10 / Fold change vs veh, BCL10 / RFU, UHRF1BP1L / Fold change vs veh, UHRF1BP1L / RFU, BET1 / Fold change vs veh, BET1 / RFU, CNOT2 / Fold change vs veh, CNOT2 / RFU, ZNF268 / Fold change vs veh, ZNF268 / Fold change vs veh, ZNF507 / RFU, DGCR2 / Fold change vs veh, DGCR2 / RFU, WDSUB1 / Fold change vs veh, WDSUB1 / Fold change vs veh, HSP90B1 /// MIR3652 / RFU, ADSS / Fold change vs veh, ADSS / RFU, GK / Fold change vs veh, GK / RFU, ZNF148 / Fold change vs veh, ZNF148 / RFU, TAF9 / Fold change vs veh, TAF9 / RFU, SLC1A5 / Fold change vs veh, SLC1A5 / RFU, SLMO2 / Fold change vs veh, SLMO2 / RFU, ABCC4 / Fold change vs veh, ABCC4 / RFU, LOC101060439 /// RAP1B / Fold change vs veh, LOC101060439 /// RAP1B / RFU, RFX7 / Fold change vs veh, RFX7 / RFU, GTPBP10 / Fold change vs veh, GTPBP10 / RFU, CNEP1R1 / Fold change vs veh, CNEP1R1 / RFU, BIVM-ERCC5 /// ERCC5 / Fold change vs veh, BIVM-ERCC5 /// ERCC5 / RFU, ILF3 / Fold change vs veh, ILF3 / RFU 11762660_at / Fold change /veh 11762660_at / RFU VCAN (11757783_s_at) / Fold change /veh VCAN (11757783_s_at) / RFU DDX43 (11728927_at) / Fold change /veh DDX43 (11728927_at) / RFU KRT8 (11758188_x_at) / Fold change /veh KRT8 (11758188_x_at) / RFU NKD1 (11759106_at) / Fold change /veh NKD1 (11759106_at) / RFU SRD5A1 (11742802_a_at) / Fold change /veh SRD5A1 (11742802_a_at) / RFU TPSAB1 /// TPSB2 (11721975_s_at) / Fold change /veh TPSAB1 /// TPSB2 (11721975_s_at) / RFU GSTM3 (11746129_a_at) / Fold change /veh GSTM3 (11746129_a_at) / RFU IL23R (11737362_x_at) / Fold change /veh IL23R (11737362_x_at) / RFU TMEM51 (11727254_a_at) / Fold change /veh TMEM51 (11727254_a_at) / RFU PIWIL2 (11732686_x_at) / Fold change /veh PIWIL2 (11732686_x_at) / RFU ORM1 (11744905_x_at) / Fold change /veh ORM1 (11744905_x_at) / RFU CCDC152 (11743942_at) / Fold change /veh CCDC152 (11743942_at) / RFU ECM1 (11717891_a_at) / Fold change /veh ECM1 (11717891_a_at) / RFU IL23R (11748794_a_at) / Fold change /veh IL23R (11748794_a_at) / RFU TNFAIP8L3 (11732012_x_at) / Fold change /veh TNFAIP8L3 (11732012_x_at) / RFU MBOAT4 (11741988_at) / Fold change /veh MBOAT4 (11741988_at) / RFU 11764193_at / Fold change /veh 11764193_at / RFU TMEM53 (11763286_at) / Fold change /veh TMEM53 (11763286_at) / RFU MAGEB2 (11727129_at) / Fold change /veh MAGEB2 (11727129_at) / RFU TMEM200A (11744735_a_at) / Fold change /veh TMEM200A (11744735_a_at) / RFU CCDC152 (11751479_a_at) / Fold change /veh CCDC152 (11751479_a_at) / RFU FAM211A (11726209_a_at) / Fold change /veh FAM211A (11726209_a_at) / RFU RGS16 (11746705_a_at) / Fold change /veh RGS16 (11746705_a_at) / RFU VCAN (11755009_s_at) / Fold change /veh VCAN (11755009_s_at) / RFU RHOB (11743442_s_at) / Fold change /veh RHOB (11743442_s_at) / RFU RGS16 (11720943_a_at) / Fold change /veh RGS16 (11720943_a_at) / RFU RGS16 (11720944_at) / Fold change /veh RGS16 (11720944_at) / RFU, VPS4B / Fold change vs veh, VPS4B / RFU, CREB1 / Fold change vs veh, CREB1 / RFU, DNAJC13 / Fold change vs veh, DNAJC13 / RFU, GNAQ / Fold change vs veh, GNAQ / RFU, CDK5R1 / Fold change vs veh, CDK5R1 / RFU, ZRANB3 / Fold change vs veh, ZRANB3 / RFU, CUL4A / Fold change vs veh, CUL4A / RFU, CCNY / Fold change vs veh, CCNY / RFU, UFL1 / Fold change vs veh, UFL1 / RFU, COG3 / Fold change vs veh, COG3 / RFU, DIAPH2 / Fold change vs veh, DIAPH2 / RFU, SKA2 / Fold change vs veh, SKA2 / RFU, AFF3 / Fold change vs veh, AFF3 / RFU, LMF1 / Fold change vs veh, LMF1 / RFU, IPO11 / Fold change vs veh, IPO11 / RFU, DFFB / Fold change vs veh, DFFB / RFU, FOXP1 / Fold change vs veh, FOXP1 / RFU, CARD8 / Fold change vs veh, CARD8 / RFU, STRN3 / Fold change vs veh, STRN3 / RFU, ADK / Fold change vs veh, ADK / RFU, RASSF2 / Fold change vs veh, RASSF2 / RFU, WIPF1 / Fold change vs veh, WIPF1 / RFU, LARP1B / Fold change vs veh, LARP1B / RFU, RASA1 / Fold change vs veh, RASA1 / RFU, RB1 / Fold change vs veh, RB1 / RFU, PPFIA1 / Fold change vs veh, PPFIA1 / RFU, MAT2A / Fold change vs veh, MAT2A / RFU, CCT5 / Fold change vs veh, CCT5 / RFU, WDR92 / Fold change vs veh, WDR92 / RFU, CUX1 / Fold change vs veh, CUX1 / RFU, TTC7A / Fold change vs veh, TTC7A / RFU, TMEM135 / Fold change vs veh, TMEM135 / RFU, DEPTOR / Fold change vs veh, DEPTOR / RFU, CPM / Fold change vs veh, CPM / RFU, DNAJB6 / Fold change vs veh, DNAJB6 / RFU, CACNA2D3 / Fold change vs veh, CACNA2D3 / RFU, DTX4 / Fold change vs veh, DTX4 / RFU, TFCP2 / Fold change vs veh, TFCP2 / RFU, GMCL1 /// GMCL1P1 / Fold change vs veh, GMCL1 /// GMCL1P1 / RFU, AEBP2 / Fold change vs veh, AEBP2 / RFU, SNHG1 /// SNORD22 /// SNORD25 /// SNORD26 /// SNORD27 /// SNORD28 /// SNORD29 /// SNORD31 / Fold change vs veh, SNHG1 /// SNORD22 /// SNORD25 /// SNORD26 /// SNORD27 /// SNORD28 /// SNORD29 /// SNORD31 / Fold change (Aza/veh), C12orf56 (ProbeSet 11735607_a_at) / Fold change (ACY-1035/veh), C12orf56 (ProbeSet 11735607_a_at) / Fold change (Aza/veh), FGFR1OP (ProbeSet 11751329_s_at) / Fold change (ACY-1035/veh), FGFR1OP (ProbeSet 11751329_s_at) / Fold change (Aza/veh), VPS36 (ProbeSet 11739960_a_at) / Fold change (ACY-1035/veh), VPS36 (ProbeSet 11739960_a_at) / RFU SYPL1 (11715823_x_at) / Fold change /veh SYPL1 (11715823_x_at) / RFU IGFBP7 (11715501_s_at) / Fold change /veh IGFBP7 (11715501_s_at) / RFU REEP3 (11722064_at) / Fold change /veh REEP3 (11722064_at) / RFU IGLL1 (11728026_x_at) / Fold change /veh IGLL1 (11728026_x_at): dose or concentration left out as unconfirmed
Settings: MV-4-11 cells, 48 hours

For Nc1ccc(-c2cccs2)cc1NC(=O)c1ccc2c(c1)cc(C1CC1)n2CCN1CCOCC1 [ACY-1035], the “Fold change /veh PLEKHG5 (11743358_a_at)” value was 1.02.
